Where a name gives a salt, the structure may show the parent alone. Read-outs that look alike come from different tables or passages of the source.
Tests used:
[1] = test system: JAK1-dependent STAT6 phosphorylation downstream of IL-13 stimulation in BEAS-2B human bronchial epithelial cells; assay: JAK1 pathway assay in BEAS-2B cells (IL-13-pSTAT6, MSD); format: cell-based; conditions: read-out: IL13-pSTAT6 EC50 (uM)_BEAS-2B
Method: JAK1 Pathway Assay in Cell Lines was Carried Out as Follows:
Inhibitor potency (EC50) was determined in cell-based assays designed to measure JAK1 dependent STAT phosphorylation.
In one assay approach, TF-1 human erythroleukemia cells obtained from the American Type Culture Collection (ATCC; Manassas, Va.) were used to measure JAK1-dependent STAT6 phosphorylation downstream of IL-13 stimulation. Prior to use in the assays, TF-1 cells were starved of GM-CSF overnight in OptiMEM medium (Life Technologies, Grand Island, N.Y.) supplemented with 0.5% charcoal/dextran stripped fetal bovine serum (FBS), 0.1 mM non-essential amino acids (NEAA), and 1 mM sodium pyruvate. The assays were run in 384-well plates in serum-free OptiMEM medium using 300,000 cells per well. In a second assay approach, BEAS-2B human bronchial epithelial cells obtained from ATCC were plated at 100,000 cells per well of a 96-well plate one day prior to the experiment. The BEAS-2B assay was run in complete growth medium (bronchial epithelial basal medium plus bulletkit; Lonza; Basel, Switzerland).
Test compounds were serially diluted 1:2 in DMSO and then diluted 1:50 in medium just before use. Diluted compounds were added to the cells, for a final DMSO concentration of 0.2%, and incubated for 30 min (for the TF-1 assay) or 1 hr (for the BEAS-2B assay) at 37° C. Then, cells were stimulated with human recombinant cytokine at their respective EC90 concentrations, as previously determined for each individual lot. Cells were stimulated with IL-13 (R&D Systems, Minneapolis, Minn.) for 15 min at 37° C. The TF-1 cell reactions were stopped by the direct addition of 10× lysis buffer (Cell Signaling Technologies, Danvers, Mass.), whereas the BEAS-2B cell incubations were halted by the removal of medium and addition of 1× lysis buffer. The resultant samples were frozen in the plates at −80° C. Compound mediated inhibition of STAT6 phosphorylation was measured in the cell lysates using MesoScale Discovery (MSD) technology (Gaithersburg, Md.).

[2] = target: isolated recombinant JAK2 kinase domain (Homo sapiens (Human), UniProt O60674); assay: JAK2 enzyme assay (Caliper LabChip, peptide phosphorylation); format: biochemical; conditions: 25 μM ATP
Chain of isolated recombinant JAK2 kinase domain (O60674 849-1124): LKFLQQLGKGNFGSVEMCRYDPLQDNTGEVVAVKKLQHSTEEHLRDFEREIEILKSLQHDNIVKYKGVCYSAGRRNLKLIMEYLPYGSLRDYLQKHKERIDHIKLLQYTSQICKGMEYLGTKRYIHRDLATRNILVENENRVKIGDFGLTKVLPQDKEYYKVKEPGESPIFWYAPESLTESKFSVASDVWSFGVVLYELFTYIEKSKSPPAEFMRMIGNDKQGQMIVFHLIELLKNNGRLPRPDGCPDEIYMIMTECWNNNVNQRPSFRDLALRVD

[3] = target: isolated recombinant JAK1 kinase domain (Homo sapiens (Human), UniProt P23458); assay: JAK1 enzyme assay (Caliper LabChip, peptide phosphorylation); format: biochemical
Chain of isolated recombinant JAK1 kinase domain (P23458 875-1153): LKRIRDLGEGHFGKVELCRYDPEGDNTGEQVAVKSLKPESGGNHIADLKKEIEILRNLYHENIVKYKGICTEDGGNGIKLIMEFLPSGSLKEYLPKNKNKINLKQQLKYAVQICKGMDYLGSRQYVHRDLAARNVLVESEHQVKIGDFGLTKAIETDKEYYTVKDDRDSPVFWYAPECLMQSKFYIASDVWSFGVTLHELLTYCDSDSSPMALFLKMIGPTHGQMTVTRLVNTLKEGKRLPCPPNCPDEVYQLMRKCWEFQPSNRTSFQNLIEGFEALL

[4] = isolated recombinant JAK1 kinase domain, 25 μM ATP

| SMILES | Ki [2] | Ki [3, 4] | EC50 [1] | Ki [3] |
| --- | --- | --- | --- | --- |
| O=C(Nc1cn(CC(=O)N2CCC(C(=O)OCC3CCNCC3)CC2)nc1-c1cc(Cl)ccc1OC(F)F)c1cnn2cccnc12 [Example 341, piperidin-4-ylmethyl 1-(2-[3-[5-chloro-2-(difluoromethoxy)phenyl]-4-[pyrazolo[1,5-a]pyrimidine-3-amido]-1H-pyrazol-1-yl]acetyl)piperidine-4-carboxylate] | 2.62 nM | 0.53 nM | 0.534 µM |  |
| N#Cc1ccc(CN2CCN(C(=O)Cn3cc(NC(=O)c4cnn5cccnc45)c(-c4cc(Cl)ccc4OC(F)F)n3)CC2)cc1 [Example 238, N-[3-[5-chloro-2-(difluoromethoxy)phenyl]-1-[2-[4-[(4-cyanophenyl)methyl]piperazin-1-yl]-2-oxo-ethyl]pyrazol-4-yl]pyrazolo[1,5-a]pyrimidine-3-carboxamide] | 0.55 nM | 0.45 nM | 0.0218 µM |  |
| COC(=O)CNC1CCN(C(=O)Cn2cc(NC(=O)c3cnn4cccnc34)c(-c3cc(Cl)ccc3OC(F)F)n2)CC1 [Example 329, methyl 2-[[1-(2-[3-[5-chloro-2-(difluoromethoxy)phenyl]-4-[pyrazolo[1,5-a]pyrimidine-3-amido]-1H-pyrazol-1-yl]acetyl)piperidin-4-yl]amino]acetate formate] | 0.76 nM |  | 0.0115 µM | 0.3 nM |
| O=C(O)CN1CCN(C(=O)Cn2cc(NC(=O)c3cnn4cccnc34)c(-c3cc(Cl)ccc3OC(F)F)n2)CC1 [Example 310, 2-[4-(2-[3-[5-chloro-2-(difluoromethoxy)phenyl]-4-[pyrazolo[1,5-a]pyrimidine-3-amido]-1H-pyrazol-1-yl]acetyl)piperazin-1-yl]acetic acid] | 0.59 nM | 0.52 nM | 8.83 µM |  |
| O=C(Nc1cn(CCNCc2ccncc2)nc1-c1cc(Cl)ccc1OC(F)F)c1cnn2cccnc12 [Example 315, N-[3-[5-chloro-2-(difluoromethoxy)phenyl]-1-[2-[(pyridin-4-ylmethyl)amino]ethyl]-1H-pyrazol-4-yl]pyrazolo[1,5-a]pyrimidine-3-carboxamide] | 0.4 nM | 0.72 nM | 0.0823 µM |  |
| O=C(Nc1cn(CC(=O)N2CCNCC2)nc1-c1cc(Cl)ccc1OC(F)F)c1cnn2cccnc12 [Example 324, N-[3-[5-chloro-2-(difluoromethoxy)phenyl]-1-[2-oxo-2-(piperazin-1-yl)ethyl]-1H-pyrazol-4-yl]pyrazolo[1,5-a]pyrimidine-3-carboxamide] | 1.61 nM | 0.95 nM | 0.0566 µM |  |
| CCOC(=O)C1(C)CCN(CCN2CCN(C(=O)Cn3cc(NC(=O)c4cnn5cccnc45)c(-c4cc(Cl)ccc4OC(F)F)n3)CC2)CC1 [Example 337, ethyl 1-[2-[4-(2-[3-[5-chloro-2-(difluoromethoxy)phenyl]-4-[pyrazolo[1,5-a]pyrimidine-3-amido]-1H-pyrazol-1-yl]acetyl)piperazin-1-yl]ethyl]-4-methylpiperidine-4-carboxylate formate] | 2.52 nM | 0.83 nM | 0.0232 µM |  |

Now from value to compound, other results behind:

| Ki [2] | Ki [3, 4] | SMILES | EC50 [1] | Ki [3] |
| --- | --- | --- | --- | --- |
| 0.76 nM | 0.39 nM | O=C1CC(N2CCN(C(=O)Cn3cc(NC(=O)c4cnn5cccnc45)c(-c4cc(Cl)ccc4OC(F)F)n3)CC2)CCO1 (stereo not drawn) [Example 347, N-[3-[5-chloro-2-(difluoromethoxy)phenyl]-1-[2-oxo-2-[4-(2-oxooxan-4-yl)piperazin-1-yl]ethyl]-1H-pyrazol-4-yl]pyrazolo[1,5-a]pyrimidine-3-carboxamide] | 0.0307 µM |  |
| 1.3 nM | 0.45 nM | N#CC1CN(C2CCN(C(=O)Cn3cc(NC(=O)c4cnn5cccnc45)c(-c4cc(Cl)ccc4OC(F)F)n3)CC2)C1 [Example 446, N-(3-(5-chloro-2-(difluoromethoxy)phenyl)-1-(2-(4-(3-cyanoazetidin-1-yl)piperidin-1-yl)-2-oxoethyl)-1H-pyrazol-4-yl)pyrazolo[1,5-a]pyrimidine-3-carboxamide] | 0.0121 µM |  |
| 1.56 nM | 0.45 nM | C[C@H]1COCCN1C1CCN(C(=O)Cn2cc(NC(=O)c3cnn4cccnc34)c(-c3cc(Cl)ccc3OC(F)F)n2)CC1 [Example 451, N-(3-(5-chloro-2-(difluoromethoxy)phenyl)-1-(2-(4-((S)-3-methyl-morpholino)piperidin-1-yl)-2-oxoethyl)-1H-pyrazol-4-yl)pyrazolo[1,5-a]pyrimidine-3-carboxamide] | 0.0201 µM |  |
| 2.49 nM | 0.91 nM | CCOC(=O)CCN(C)C1CCN(C(=O)Cn2cc(NC(=O)c3cnn4cccnc34)c(-c3cc(Cl)ccc3OC(F)F)n2)CC1 [Example 391, ethyl 3-[[1-(2-[3-[5-chloro-2-(difluoromethoxy)phenyl]-4-[pyrazolo[1,5-a]pyrimidine-3-amido]-1H-pyrazol-1-yl]acetyl)piperidin-4-yl](methyl)amino]propanoate] | 0.0206 µM |  |
| 1.54 nM | 0.75 nM | CC1CN(C)CCN1C(=O)Cn1cc(NC(=O)c2cnn3cccnc23)c(-c2cc(Cl)ccc2OC(F)F)n1 (stereo not drawn) [Example 375, N-[3-[5-chloro-2-(difluoromethoxy)phenyl]-1-[2-(2,4-dimethylpiperazin-1-yl)-2-oxoethyl]-1H-pyrazol-4-yl]pyrazolo[1,5-a]pyrimidine-3-carboxamide] | 0.0716 µM |  |
| 0.99 nM | 1.07 nM | CCOC(=O)CN1CCC(n2cc(NC(=O)c3cnn4cccnc34)c(-c3cc(Cl)ccc3OC(F)F)n2)CC1 [Example 366, ethyl 2-(4-[3-[5-chloro-2-(difluoromethoxy)phenyl]-4-[pyrazolo[1,5-a]pyrimidine-3-amido]-1H-pyrazol-1-yl]piperidin-1-yl)acetate] | 0.312 µM |  |
| 1.3 nM | 0.56 nM | CN1CCN(C(=O)Cn2cc(NC(=O)c3cnn4cccnc34)c(-c3cc(Cl)ccc3OC(F)F)n2)C(C)(C)C1 [Example 377, N-[3-[5-chloro-2-(difluoromethoxy)phenyl]-1-[2-oxo-2-(2,2,4-trimethylpiperazin-1-yl)ethyl]-1H-pyrazol-4-yl]pyrazolo[1,5-a]pyrimidine-3-carboxamide] | 0.0528 µM |  |
| 0.5 nM | 0.83 nM | O=C(Nc1cn(CCNCc2ncco2)nc1-c1cc(Cl)ccc1OC(F)F)c1cnn2cccnc12 [Example 367, N-[3-[5-chloro-2-(difluoromethoxy)phenyl]-1-[2-[(1,3-oxazol-2-ylmethyl)amino]ethyl]-1H-pyrazol-4-yl]pyrazolo[1,5-a]pyrimidine-3-carboxamide] | 0.0352 µM |  |
| 0.77 nM | 0.4 nM | O=C1CC(N2CCN(C(=O)Cn3cc(NC(=O)c4cnn5cccnc45)c(-c4cc(Cl)ccc4OC(F)F)n3)CC2)CO1 (stereo not drawn) [Example 392, N-[3-[5-chloro-2-(difluoromethoxy)phenyl]-1-[2-oxo-2-[4-(5-oxooxolan-3-yl)piperazin-1-yl]ethyl]-1H-pyrazol-4-yl]pyrazolo[1,5-a]pyrimidine-3-carboxamide] | 0.0261 µM |  |
| 2.09 nM | 2.99 nM | CN1CCC(=CCn2cc(NC(=O)c3cnn4cccnc34)c(-c3cc(Cl)ccc3OC(F)F)n2)CC1 [Example 415, N-(3-(5-chloro-2-(difluoromethoxy)phenyl)-1-(2-(1-methylpiperidin-4-ylidene)ethyl)-1H-pyrazol-4-yl)pyrazolo[1,5-a]pyrimidine-3-carboxamide] | 0.046 µM |  |

From patent publication US9346815B2, “5-chloro-2-difluoromethoxyphenyl pyrazolopyrimidine compounds, compositions and methods of use thereof” (Genentech, Inc., priority 2014, dated 2016)
